{"source": "patent US3962256A", "about": "“2-Aminomethyl benzimidazole derivatives” (Delalande S.A., priority 1973, dated 1976)", "key": {"[1]": {"test_system": "painful stretchings caused by the intraperitoneal injection of acetic acid", "assay": "Analgesic: reduction of painful stretchings caused by intraperitoneal acetic acid, oral, mouse", "type": "in vivo", "settings": "100 mg/Kg/p.o.", "method": "The compounds of formula (I), administered by oral means to the mouse, are capable of reducing the number of painful stretchings caused by the intraperitoneal injection of acetic acid.\nBy way of example, the following Table III lists the results obtained by administration of 100 mg/Kg/p.o. of different compounds of formula (I)."}, "[2]": {"test_system": "gastric secretion measured after Shay ligature", "assay": "Gastric antisecretory: reduction of gastric secretion after Shay ligature, rat", "type": "in vivo", "settings": "50 mg/Kg/i.d.", "method": "Administered by intraduodenal means to a rat, the compounds of formula (I) are capable of reducing the gastric secretion measured after Shay ligature.\nBy way of example, the following Table V gives the results obtained by administration of 50 mg/Kg/i.d. of different compounds of formula (I)."}, "[3]": {"assay": "Lethal doses / percentage mortality, oral", "type": "in vivo", "settings": "for Percentage mortality: 2 000 mg/Kg/p.o., 2000 mg/kg", "from_the_text": "As a result of a comparison between the pharmacologically active doses mentioned above and the lethal doses listed in the following Table XII, the difference between said doses is sufficiently great to permit the utilisation of the compounds of formula (I) in therapeutics."}, "[4]": {"test_system": "bronchoconstriction provoked in the guinea-pig by acetylcholine", "assay": "Antibronchoconstrictive and anticholinergic: bronchoconstriction by intravenous acetylcholine, Konzett method", "type": "in vivo", "from_the_text": "Injected by intraveinous or intraduodenal means, the compounds of formula (I) are capable of opposing the bronchoconstriction provoked in the guinea-pig by the itraveinous injection of acetylcholine by the Konzett method.\nBy way of example, the following Table VII lists the results obtained by the administration of different compounds of formula (I)"}, "[5]": {"test_system": "rat suffering from high blood pressure", "assay": "Antihypertensive: return of systolic arterial pressure to normal in rats with high blood pressure", "type": "in vivo", "from_the_text": "The compounds of formula (I), administered by oral means to a rat suffering from high blood pressure, are capable of lowering the systolic arteriel pressure.\nBy way of example, there is provided in the following Table IV the results obtained by administration of different compounds of formula (I)."}, "[6]": {"test_system": "oedema caused by the sub-plantar injection of carraghenin", "assay": "Antiinflammatory: reduction of sub-plantar oedema caused by carraghenin, rat", "type": "in vivo", "settings": "100 mg/Kg/p.o.", "method": "These properties are shown by a diminution of the local oedema caused by the sub-plantar injection of a phlogogenic agent, such as carraghenin, in the rat following the oral administration of compounds of formula (I).\nThe following Table VI lists, by way of example, the percentage reduction of the oedems caused by the sub-plantar injection of carraghenin, resulting from the administration of 100 mg/Kg/p.o. of different compounds of formula (I)."}, "[7]": {"test_system": "gastric ulcers, provoked in a rat by tying of the pylorus (Shay ulcers)", "assay": "Antiulcerous: reduction of Shay ulcers (tying of the pylorus)", "type": "in vivo", "settings": "50 mg/Kg/i.d.", "method": "The compounds of formula (I) administered by intraduodenal means reduce the extent of gastric ulcers, provoked in a rat by tying of the pylorus (Shay ulcers).\nBy way of example, there is listed in the following Table IX, the results obtained by the administrations of 50 mg/Kg/i.d. of different compounds of formula (I)."}, "[8]": {"test_system": "explorations in the escape enclosure", "assay": "Sedative: reduction of number of explorations in the escape enclosure", "type": "in vivo", "settings": "100 mg/Kg/p.o., mouse", "method": "The compounds of formula (I), administered by oral means to the mouse, reduce the number of explorations in the escape enclosure.\nBy way of example, the following Table VIII lists the results obtained by the administration of 100 mg/Kg/p.o. of different compounds of formula (I)."}, "[9]": {"test_system": "ventricular fibrillations provoked by the inhalation of chloroform", "assay": "Antiarythmic: protection against ventricular fibrillations provoked by inhalation of chloroform", "type": "in vivo", "settings": "i.p., mouse", "from_the_text": "Administered by intraperitoneal means, the compounds of formula (I) are capable of protecting the mouse against the ventricular fibrillations provoked by the inhalation of chloroform."}, "[10]": {"test_system": "isolated duodenum of the rat", "assay": "Spasmolytic: opposing barium chloride contraction of isolated duodenum", "settings": "papaverine as standard", "method": "The compounds of formula (I), introduced in the conserving medium are capable of opposing the contractural action of barium chloride on the isolated duodenum of the rat. This activity is evaluated by taking papaverine as standard."}, "volume of urine emitted": {"test_system": "volume of urine emitted", "assay": "Diuretic: augmentation of urinary elimination", "type": "in vivo", "settings": "25 mg/Kg/p.o., mouse, 6 hours", "method": "The compounds of formula (I), administered by oral means to the mouse, simultaneously with a volume of 1 ml. of an isotonic solution of sodium chloride per 25 g of the corporeal weight of the mouse, are capable of provoking an augmentation of the volume of urine emitted by reference to control animals, the volume being measured for 6 hours following administration.\nBy way of example, the following Table XI lists the results obtained by the administration of 25 mg/Kg/p.o. of different compounds of formula (I)."}, "[11]": {"test_system": "isolated heart of a guinea-pig", "assay": "Vasodilatatory: coronary flow of isolated heart", "settings": "1 μg/ml in perfusion liquid", "method": "The compounds of formula (I) are capable of augmenting the flow of the coronary vessels of the isolated heart of a guinea-pig when said compounds are added in the perfusion liquid of said organ.\nBy way of example, there can be found in the following Table X, the percentage augmentation of the flow of the isolated heart of a guinea-pig by adding different compounds of formula (I) to the perfusion liquid, in a concentration of 1 μg/ml."}, "[12]": {"test_system": "excursions into the escape enclosure", "assay": "Central nervous system stimulation: excursions in the escape test", "type": "in vivo", "settings": "100 mg/Kg/p.o., mouse", "method": "The compounds of formula (I), administered by oral means to the mouse, provoke an augmentation of the number of excursions into the escape enclosure.\nThus, following the administration of 100 mg/Kg/p.o. of the compounds of Code Nos. 72 457 and 72 736, an augmentation of 30% in the number of excursions in the escape test, is observed."}}, "note": "Counter-ions that a name gives are not always drawn.", "data": [{"smiles": "CCCCOc1ccc(C(=O)CCn2c(CN3CCOCC3)nc3ccccc32)cc1", "note": "[72 523]", "values": [{"measurement": "Percentage reduction of number of painful stretchings", "setting": "[1]", "value": 45, "unit": "%"}, {"measurement": "Percentage reductions in volume of gastric secretion", "setting": "[2]", "value": 25, "unit": "%"}, {"measurement": "Percentage mortality", "setting": "[3]", "value": 0, "unit": "%"}]}, {"smiles": "COc1cc(C(=O)CCn2c(CN3CCOCC3)nc3ccccc32)cc(OC)c1OC.O=C(O)/C=C\\C(=O)O", "note": "[72 525]", "values": [{"measurement": "Percentage inhibition of bronchoconstriction", "setting": "[4]; 100 mg/kg/i.d.", "value": 80, "unit": "%"}, {"measurement": "Percentage of rats with high blood pressure whose systolic arteriel pressure is returned to normal", "setting": "[5]; 200 mg/Kg/p.o.", "value": 50, "unit": "%"}]}, {"smiles": "O=C(CCn1c(CN2CCOCC2)nc2ccccc21)c1ccc(F)cc1.O=C(O)/C=C\\C(=O)O", "note": "[72 526]", "values": [{"measurement": "Percentage reduction of sub-plantar oedema", "setting": "[6]", "value": 55, "unit": "%"}, {"measurement": "Percentage inhibition of bronchoconstriction", "setting": "[4]; 100 mg/kg/i.d.", "value": 75, "unit": "%"}, {"measurement": "Percentage reduction of Shay ulcers", "setting": "[7]", "value": 40, "unit": "%"}, {"measurement": "Percentage of rats with high blood pressure whose systolic arteriel pressure is returned to normal", "setting": "[5]; 100 mg/Kg/p.o.", "value": 75, "unit": "%"}]}, {"smiles": "COc1cc(C(=O)CCn2c(CN(C)C)nc3ccccc32)cc(OC)c1OC", "note": "[72 534]", "values": [{"measurement": "Percentage inhibition of bronchoconstriction", "setting": "[4]; 100 mg/kg/i.d.", "value": 50, "unit": "%"}, {"measurement": "Percentage mortality", "setting": "[3]", "value": 0, "unit": "%"}]}, {"smiles": "Cc1ccc(C(=O)CCn2c(CN3CCCCC3)nc3ccccc32)c(C)c1", "note": "[72 540]", "values": [{"measurement": "Percentage reduction of number of explorations in the escape enclosure", "setting": "[8]", "value": 30, "unit": "%"}, {"measurement": "Percentage inhibition of bronchoconstriction", "setting": "[4]; 100 mg/kg/i.d.", "value": 50, "unit": "%"}, {"measurement": "Percentage mortality", "setting": "[3]", "value": 0, "unit": "%"}]}, {"smiles": "CCN(CC)Cc1nc2ccccc2n1CCC(=O)c1ccc(F)cc1.O=C(O)/C=C\\C(=O)O", "note": "[72 568]", "values": [{"measurement": "DE 50", "setting": "[9]", "value": 200, "unit": "mg/Kg/i.p."}, {"measurement": "Percentage of rats with high blood pressure whose systolic arteriel pressure is returned to normal", "setting": "[5]; 200 mg/Kg/p.o.", "value": 50, "unit": "%"}]}, {"smiles": "CCN(CC)Cc1nc2ccccc2n1CCC(=O)c1ccccc1", "note": "[72 573, 1-(2'-benzoylethyl maleate)-2-diethylaminomethyl benzimidazole]", "values": [{"measurement": "spasmolytic activity relative to papaverine", "setting": "[10]", "value": "equivalent spasmolytic actvity to that of papaverine"}, {"measurement": "Percentage inhibition of bronchoconstriction", "setting": "[4]; 5 mg/kg/i.v.", "value": 100, "unit": "%"}, {"measurement": "mortality", "setting": "[3]; in vivo, po, 1 250 mg/Kg/p.o.", "value": "~50", "unit": "%"}]}, {"smiles": "CCN(CC)Cc1nc2ccccc2n1CCC(=O)c1ccc(C)cc1.O=C(O)/C=C\\C(=O)O", "note": "[72 574]", "values": [{"measurement": "Percentage reduction of number of painful stretchings", "setting": "[1]", "value": 45, "unit": "%"}, {"measurement": "Percentage reduction of Shay ulcers", "setting": "[7]", "value": 45, "unit": "%"}]}, {"smiles": "COc1ccc(C(=O)CCn2c(CN3CCCC3)nc3ccccc32)cc1OC", "note": "[72 617]", "values": [{"measurement": "Percentage reduction of number of painful stretchings", "setting": "[1]", "value": 70, "unit": "%"}]}, {"smiles": "CN(C)Cc1nc2ccccc2n1CCC(=O)c1ccc(F)cc1.O=C(O)/C=C\\C(=O)O", "note": "[72 663]", "values": [{"measurement": "Percentage reduction of number of painful stretchings", "setting": "[1]", "value": 60, "unit": "%"}, {"measurement": "Percentage reduction of number of explorations in the escape enclosure", "setting": "[8]", "value": 30, "unit": "%"}]}, {"smiles": "CCN(CC)Cc1nc2ccccc2n1CCC(=O)c1ccc(OC)c(OC)c1.O=C(O)/C=C\\C(=O)O", "note": "[72 692]", "values": [{"measurement": "Percentage augmentation of urinary elimination", "setting": "volume of urine emitted", "value": 70, "unit": "%"}, {"measurement": "Percentage augmentations of flow of isolated heart of a guinea-pig", "setting": "[11]", "value": 60, "unit": "%"}, {"measurement": "Percentage reduction of number of explorations in the escape enclosure", "setting": "[8]", "value": 30, "unit": "%"}]}, {"smiles": "O=C(CCn1c(CN2CCCC2)nc2ccccc21)c1ccc(F)cc1", "note": "[72 708]", "values": [{"measurement": "spasmolytic activity relative to papaverine", "setting": "[10]", "value": "equivalent spasmolytic actvity to that of papaverine"}, {"measurement": "Percentage reduction of number of painful stretchings", "setting": "[1]", "value": 60, "unit": "%"}, {"measurement": "Percentage inhibition of bronchoconstriction", "setting": "[4]; 100 mg/kg/i.d.", "value": 90, "unit": "%"}, {"measurement": "Percentage reduction of Shay ulcers", "setting": "[7]", "value": 30, "unit": "%"}]}, {"smiles": "Cc1ccc(C(=O)CCn2c(CN(C)C)nc3ccccc32)c(C)c1", "note": "[72 712]", "values": [{"measurement": "Percentage reduction of sub-plantar oedema", "setting": "[6]", "value": 70, "unit": "%"}, {"measurement": "Percentage reduction of number of explorations in the escape enclosure", "setting": "[8]", "value": 40, "unit": "%"}, {"measurement": "Percentage reduction of Shay ulcers", "setting": "[7]", "value": 55, "unit": "%"}, {"measurement": "Percentage mortality", "setting": "[3]", "value": 0, "unit": "%"}]}, {"smiles": "CCCCOc1ccc(C(=O)CCn2c(CN(CC)CC)nc3ccccc32)cc1", "note": "[72 727]", "values": [{"measurement": "Percentage inhibition of bronchoconstriction", "setting": "[4]; 100 mg/kg/i.d.", "value": 100, "unit": "%"}]}, {"smiles": "CCN(CC)Cc1nc2ccccc2n1CCC(=O)c1ccc(C)cc1C.O=C(O)/C=C\\C(=O)O", "note": "[72 736]", "values": [{"measurement": "spasmolytic activity relative to papaverine", "setting": "[10]", "value": "equivalent spasmolytic actvity to that of papaverine"}, {"measurement": "augmentation in the number of excursions in the escape test", "setting": "[12]", "value": 30, "unit": "%"}, {"measurement": "Percentage inhibition of bronchoconstriction", "setting": "[4]; 10 mg/kg/i.v.", "value": 90, "unit": "%"}, {"measurement": "Percentage reduction of Shay ulcers", "setting": "[7]", "value": 30, "unit": "%"}]}]}
